# Assay results as given in patent publication US12077503B2, “Substituted cyclic amides and their use as herbicides” (FMC CORPORATION, priority 2015, dated 2024).
# How the values were obtained:
# Assay type in all cases: in vivo
# [1] = test system: redroot pigweed (Amaranthus retroflexus); assay: Test G Pre-Emergence Protocol; details: Amaranthus retroflexus, pre-emergence, 312 h, evaluated after 13 days; for pest or weed control at 15.625 g/ha: 15.625 g ai/ha; for pest or weed control at 15.625 g/ha / pest or weed control at 250 g/ha: read-out: Pigweed, Redroot damage rating (100=total damage to plant; 0=no damage to plant); for pest or weed control at 62.5 g/ha: 62.5 g ai/ha, 100=total damage to plant, 0=no damage to plant, read-out: plant damage rating, Pigweed, Redroot; for pest or weed control at 250 g/ha: 250 g ai/ha
# Outline: (§1)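 Seeds were sown in standard soil and kept one day in a glasshouse (24/16° C day/night, 14 h light, 65% humidity), then sprayed with compound in acetone/water (50:50) containing 0.5% Tween 20 at 15.625, 62.5 or 250 g/ha. Damage was scored after 13 days (0 = none, 100 = total).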
# corn (Zea mays) [2] = assay: Test G Pre-Emergence Protocol; details: Zea mays, pre-emergence, 312 h, evaluated after 13 days; for plant injury at 15.625 g/ha: 15.625 g ai/ha; for plant injury at 15.625 g/ha / plant injury at 250 g/ha: read-out: Corn damage rating (100=total damage to plant; 0=no damage to plant); for plant injury at 62.5 g/ha: 62.5 g ai/ha, 100=total damage to plant, 0=no damage to plant, read-out: plant damage rating, Corn; for plant injury at 250 g/ha: 250 g ai/ha
# Outline: as §1
# [3] = test system: velvetleaf (Abutilon theophrasti); assay: Test G Pre-Emergence Protocol; details: Abutilon theophrasti, pre-emergence, 312 h, evaluated after 13 days; for pest or weed control at 15.625 g/ha: 15.625 g ai/ha; for pest or weed control at 15.625 g/ha / pest or weed control at 250 g/ha: read-out: Velvetleaf damage rating (100=total damage to plant; 0=no damage to plant); for pest or weed control at 62.5 g/ha: 62.5 g ai/ha, 100=total damage to plant, 0=no damage to plant, read-out: plant damage rating, Velvetleaf; for pest or weed control at 250 g/ha: 250 g ai/ha
# Outline: as §1
# [4] = test system: barnyardgrass (Echinochloa crus-galli); assay: Test G Pre-Emergence Protocol; details: Echinochloa crus-galli, pre-emergence, 312 h, evaluated after 13 days; for pest or weed control at 15.625 g/ha: 15.625 g ai/ha, read-out: Barnyard grass damage rating (100=total damage to plant; 0=no damage to plant); for pest or weed control at 62.5 g/ha: 62.5 g ai/ha, 100=total damage to plant, 0=no damage to plant, read-out: plant damage rating, Barnyardgrass; for pest or weed control at 250 g/ha: 250 g ai/ha, read-out: Barnyardgrass damage rating (100=total damage to plant; 0=no damage to plant)
# Outline: as §1
# [5] = test system: giant foxtail (Setaria faberi); assay: Test G Pre-Emergence Protocol; details: Setaria faberi, pre-emergence, 312 h, evaluated after 13 days; for pest or weed control at 15.625 g/ha: 15.625 g ai/ha; for pest or weed control at 15.625 g/ha / pest or weed control at 250 g/ha: read-out: Foxtail, Giant damage rating (100=total damage to plant; 0=no damage to plant); for pest or weed control at 62.5 g/ha: 62.5 g ai/ha, 100=total damage to plant, 0=no damage to plant, read-out: plant damage rating, Foxtail, Giant; for pest or weed control at 250 g/ha: 250 g ai/ha
# Outline: as §1
# [6] = test system: ivy-leaved morning glory (Ipomoea hederacea); assay: Test G Pre-Emergence Protocol; details: Ipomoea, pre-emergence, 312 h, evaluated after 13 days; for pest or weed control at 15.625 g/ha: 15.625 g ai/ha, read-out: Morning-glory, Ivy-leaved damage rating (100=total damage to plant; 0=no damage to plant); for pest or weed control at 62.5 g/ha: 62.5 g ai/ha, 100=total damage to plant, 0=no damage to plant, read-out: plant damage rating, Morningglory, Ivy-leaved; for pest or weed control at 250 g/ha: 250 g ai/ha, read-out: Morningglory, Ivy-leaved damage rating (100=total damage to plant; 0=no damage to plant)
# Outline: as §1
# [7] = test system: redroot pigweed (Amaranthus retroflexus); assay: Test G Post-Emergence Protocol; details: Amaranthus retroflexus, post-emergence, 312 h; for pest or weed control at 15.625 g/ha: 15.625 g ai/ha, evaluated after 13 days (100=total damage to plant; 0=no damage to plant), read-out: Pigweed, Redroot damage rating; for pest or weed control at 62.5 g/ha: 62.5 g ai/ha, read-out: Pigweed, Redroot damage rating (100=total damage to plant; 0=no damage to plant); for pest or weed control at 62.5 g/ha / pest or weed control at 250 g/ha: evaluated after 13 days; for pest or weed control at 250 g/ha: 250 g ai/ha, read-out: damage to plant, Pigweed, Redroot (100=total damage to plant; 0=no damage to plant)
# Outline: (§2)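 Foliar application was made 8 days after sowing, using an aqueous spray of the active in acetone/water (50:50) with 0.5% Tween 20, at doses of 15.625, 62.5 or 250 g/ha. Injury was assessed 13 days later, where 100 meant the plant was fully damaged.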
# corn (Zea mays) [8] = assay: Test G Post-Emergence Protocol; details: Zea mays, post-emergence, 312 h; for plant injury at 15.625 g/ha: 15.625 g ai/ha, evaluated after 13 days (100=total damage to plant; 0=no damage to plant), read-out: Corn damage rating; for plant injury at 62.5 g/ha: 62.5 g ai/ha, read-out: Corn damage rating (100=total damage to plant; 0=no damage to plant); for plant injury at 62.5 g/ha / plant injury at 250 g/ha: evaluated after 13 days; for plant injury at 250 g/ha: 250 g ai/ha, read-out: damage to plant, Corn (100=total damage to plant; 0=no damage to plant)
# Outline: as §2
# [9] = test system: velvetleaf (Abutilon theophrasti); assay: Test G Post-Emergence Protocol; details: Abutilon theophrasti, post-emergence, 312 h; for pest or weed control at 15.625 g/ha: 15.625 g ai/ha, evaluated after 13 days (100=total damage to plant; 0=no damage to plant), read-out: Velvetleaf damage rating; for pest or weed control at 62.5 g/ha: 62.5 g ai/ha, read-out: Velvetleaf damage rating (100=total damage to plant; 0=no damage to plant); for pest or weed control at 62.5 g/ha / pest or weed control at 250 g/ha: evaluated after 13 days; for pest or weed control at 250 g/ha: 250 g ai/ha, read-out: damage to plant, Velvetleaf (100=total damage to plant; 0=no damage to plant)
# Outline: as §2
# [10] = test system: barnyardgrass (Echinochloa crus-galli); assay: Test G Post-Emergence Protocol; details: Echinochloa crus-galli, post-emergence, 312 h; for pest or weed control at 15.625 g/ha: 15.625 g ai/ha, evaluated after 13 days (100=total damage to plant; 0=no damage to plant), read-out: Barnyardgrass damage rating; for pest or weed control at 62.5 g/ha: 62.5 g ai/ha, read-out: Barnyardgrass damage rating (100=total damage to plant; 0=no damage to plant); for pest or weed control at 62.5 g/ha / pest or weed control at 250 g/ha: evaluated after 13 days; for pest or weed control at 250 g/ha: 250 g ai/ha, read-out: damage to plant, Barnyardgrass (100=total damage to plant; 0=no damage to plant)
# Outline: as §2
# [11] = test system: giant foxtail (Setaria faberi); assay: Test G Post-Emergence Protocol; details: Setaria faberi, post-emergence, 312 h; for pest or weed control at 15.625 g/ha: 15.625 g ai/ha, evaluated after 13 days (100=total damage to plant; 0=no damage to plant), read-out: Foxtail, Giant damage rating; for pest or weed control at 62.5 g/ha: 62.5 g ai/ha, read-out: Foxtail, Giant damage rating (100=total damage to plant; 0=no damage to plant); for pest or weed control at 62.5 g/ha / pest or weed control at 250 g/ha: evaluated after 13 days; for pest or weed control at 250 g/ha: 250 g ai/ha, read-out: damage to plant, Foxtail, Giant (100=total damage to plant; 0=no damage to plant)
# Outline: as §2
# [12] = test system: ivy-leaved morning glory (Ipomoea hederacea); assay: Test G Post-Emergence Protocol; details: Ipomoea, post-emergence, 312 h; for pest or weed control at 15.625 g/ha: 15.625 g ai/ha, evaluated after 13 days (100=total damage to plant; 0=no damage to plant), read-out: Morningglory, Ivy-leaved damage rating; for pest or weed control at 62.5 g/ha: 62.5 g ai/ha, read-out: Morningglory, Ivy-leaved damage rating (100=total damage to plant; 0=no damage to plant); for pest or weed control at 62.5 g/ha / pest or weed control at 250 g/ha: evaluated after 13 days; for pest or weed control at 250 g/ha: 250 g ai/ha, read-out: damage to plant, Morningglory, Ivy-leaved (100=total damage to plant; 0=no damage to plant)
# Outline: as §2
Structure (SMILES),pest or weed control at 15.625 g/ha [1] [%],pest or weed control at 62.5 g/ha [1] [%],pest or weed control at 250 g/ha [1] [%],plant injury at 15.625 g/ha (corn (Zea mays) [2]) [%],plant injury at 62.5 g/ha (corn (Zea mays) [2]) [%],plant injury at 250 g/ha (corn (Zea mays) [2]) [%],pest or weed control at 15.625 g/ha [3] [%],pest or weed control at 62.5 g/ha [3] [%],pest or weed control at 250 g/ha [3] [%],pest or weed control at 15.625 g/ha [4] [%],pest or weed control at 62.5 g/ha [4] [%],pest or weed control at 250 g/ha [4] [%],pest or weed control at 15.625 g/ha [5] [%],pest or weed control at 62.5 g/ha [5] [%],pest or weed control at 250 g/ha [5] [%],pest or weed control at 15.625 g/ha [6] [%],pest or weed control at 62.5 g/ha [6] [%],pest or weed control at 250 g/ha [6] [%],pest or weed control at 15.625 g/ha [7] [%],pest or weed control at 62.5 g/ha [7] [%],other results
CN1C[C@@H](c2ccc(C(F)(F)F)cc2)[C@H](C(=O)Nc2cccc(Cl)n2)C1=O (racemic) [Compound 1606],0,0,0,0,0,10,0,0,0,0,20,60,0,60,90,0,0,10,40,40,pest or weed control at 250 g/ha [7]: 100%; plant injury at 15.625 g/ha (corn (Zea mays) [8]): 0%; plant injury at 62.5 g/ha (corn (Zea mays) [8]): 0%; plant injury at 250 g/ha (corn (Zea mays) [8]): 0%; pest or weed control at 15.625 g/ha [9]: 0%; pest or weed control at 62.5 g/ha [9]: 0%; pest or weed control at 250 g/ha [9]: 60%; pest or weed control at 15.625 g/ha [10]: 20%; pest or weed control at 62.5 g/ha [10]: 40%; pest or weed control at 250 g/ha [10]: 50%; pest or weed control at 15.625 g/ha [11]: 40%; pest or weed control at 62.5 g/ha [11]: 70%; pest or weed control at 250 g/ha [11]: 80%; pest or weed control at 15.625 g/ha [12]: 0%; pest or weed control at 62.5 g/ha [12]: 0%; pest or weed control at 250 g/ha [12]: 30%
CN1C[C@@H](c2ccc(C(F)(F)F)cc2)[C@H](C(=O)Nc2cccc(F)c2C(F)(F)F)C1=O (racemic) [Compound 1609],20,40,70,0,10,40,10,10,30,20,50,80,70,80,80,10,20,70,30,70,pest or weed control at 250 g/ha [7]: 70%; plant injury at 15.625 g/ha (corn (Zea mays) [8]): 10%; plant injury at 62.5 g/ha (corn (Zea mays) [8]): 10%; plant injury at 250 g/ha (corn (Zea mays) [8]): 60%; pest or weed control at 15.625 g/ha [9]: 0%; pest or weed control at 62.5 g/ha [9]: 20%; pest or weed control at 250 g/ha [9]: 50%; pest or weed control at 15.625 g/ha [10]: 20%; pest or weed control at 62.5 g/ha [10]: 70%; pest or weed control at 250 g/ha [10]: 70%; pest or weed control at 15.625 g/ha [11]: 70%; pest or weed control at 62.5 g/ha [11]: 80%; pest or weed control at 250 g/ha [11]: 80%; pest or weed control at 15.625 g/ha [12]: 20%; pest or weed control at 62.5 g/ha [12]: 20%; pest or weed control at 250 g/ha [12]: 70%
